We go through four compounds from patent publication US7901893B2, “NPC1L1 (NPC3) and methods of identifying ligands thereof” (Merck Sharp & Dohme Corp., priority 2004, dated 2011).

Structures are written as SMILES. Entries after “also recorded” stand apart in the source; their conditions may differ.

The test system of assay [1] is cholesterol absorption. Put plainly: Acute rat cholesterol absorption study. Particulars: rat acute cholesterol absorption model. The format is in vivo. The protocol: To determine if in vitro binding activity is predictive of in vivo efficacy, the enantiomer of ezetimibe glucuronide and several close structural analogues of ezetimibe glucuronide that were tested in the rat membrane binding assay were tested in an acute rat cholesterol absorption study as described in Examples 23-26. […] For the other analogs, the same rank order of potency is observed in the in vitro and in vivo assays, further evidence that the observed binding is due to the target of ezetimibe.

For assay [2], the target named is T1, rhesus brush border membrane vesicles (Macaca mulatta, UniProt A0MJA5).
T1 sequence (A0MJA5 1-1332): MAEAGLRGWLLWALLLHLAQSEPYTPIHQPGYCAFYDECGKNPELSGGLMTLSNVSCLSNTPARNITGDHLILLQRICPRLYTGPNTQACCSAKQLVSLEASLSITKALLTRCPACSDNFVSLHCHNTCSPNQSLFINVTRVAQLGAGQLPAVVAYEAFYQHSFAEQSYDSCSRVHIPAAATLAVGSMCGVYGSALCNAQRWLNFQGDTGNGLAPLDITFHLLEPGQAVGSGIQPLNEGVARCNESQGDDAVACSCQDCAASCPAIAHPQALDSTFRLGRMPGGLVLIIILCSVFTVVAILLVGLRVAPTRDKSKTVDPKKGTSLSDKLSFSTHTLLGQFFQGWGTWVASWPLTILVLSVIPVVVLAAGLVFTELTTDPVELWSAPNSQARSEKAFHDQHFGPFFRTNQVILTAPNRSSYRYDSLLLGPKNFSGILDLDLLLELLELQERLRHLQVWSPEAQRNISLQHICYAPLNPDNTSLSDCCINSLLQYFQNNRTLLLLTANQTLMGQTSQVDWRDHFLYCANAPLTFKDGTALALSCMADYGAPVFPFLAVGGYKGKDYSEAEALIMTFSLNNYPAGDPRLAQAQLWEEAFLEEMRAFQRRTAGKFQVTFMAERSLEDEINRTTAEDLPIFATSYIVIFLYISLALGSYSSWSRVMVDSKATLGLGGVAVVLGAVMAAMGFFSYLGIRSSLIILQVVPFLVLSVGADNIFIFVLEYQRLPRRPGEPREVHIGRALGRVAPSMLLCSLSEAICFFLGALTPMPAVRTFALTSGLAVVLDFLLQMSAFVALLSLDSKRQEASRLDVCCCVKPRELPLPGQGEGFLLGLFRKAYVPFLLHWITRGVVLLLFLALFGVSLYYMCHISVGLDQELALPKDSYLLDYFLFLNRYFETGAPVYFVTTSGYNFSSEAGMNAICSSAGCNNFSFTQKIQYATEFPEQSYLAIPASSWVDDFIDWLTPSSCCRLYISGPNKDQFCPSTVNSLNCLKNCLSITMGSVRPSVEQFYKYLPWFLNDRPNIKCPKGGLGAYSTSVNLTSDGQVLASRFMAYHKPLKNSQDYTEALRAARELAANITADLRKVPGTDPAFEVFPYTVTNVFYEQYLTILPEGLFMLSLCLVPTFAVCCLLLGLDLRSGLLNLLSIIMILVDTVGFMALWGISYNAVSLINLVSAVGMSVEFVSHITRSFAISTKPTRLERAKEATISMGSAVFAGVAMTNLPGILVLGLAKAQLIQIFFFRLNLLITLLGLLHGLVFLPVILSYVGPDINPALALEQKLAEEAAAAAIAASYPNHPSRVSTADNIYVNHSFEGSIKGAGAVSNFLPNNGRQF
Put plainly: biochemical.
Method: The intestines from freshly sacrificed animals were cut into segments, perfused with ice-cold saline buffer (Buffer A: 26 mM NaHCO3, 0.96 mM NaH2PO4, 5 mM HEPES, 5.5 mM glucose, 117 mM NaCl, 5.4 mM KCl, pH=7.4), placed on cold glass plates, opened longitudinally, and the mucosa scraped with glass microscope slips. This mucosa could be used fresh or frozen with identical results. To prepare the membranes, the mucosal scrapings were resuspended in 20 volumes of cold buffer consisting of 300 mM D-mannitol, 5 mM EGTA, 12 mM Tris, pH 7.4 with HCl, and containing 0.1 mM PMSF and a 1% dilution of a protease inhibitor cocktail (set 1, Calbiochem). They were homogenized using a Polytron at medium speed on ice until inspection with a microscope indicated complete cell lysis. Then, solid MgCl2 was added slowly with stirring to a final concentration of 10 mM, and the solution was kept stirring on ice for 15 min. Cellular debris was removed by centrifugation for 15 min at 3,000 g, and the membranes were recovered by centrifugation for 60 min at 48,000 g. The membranes were further rinsed by re-suspension in a buffer containing 50 mM D-mannitol, 5 mM EGTA, and 2 mM Tris at pH 7.40, and centrifugation for 60 min at 48,000 g. The final pellet was resuspended in 120 mM NaCl and 20 mM Tris at pH 7.40 to a concentration of ˜10-20 mg protein/ml, aliquoted, frozen in liquid nitrogen, and stored at −80 C. The activity was stable indefinitely and could be freeze-thawed with minimal loss of activity.
Binding assay. Assays were conducted in 12×75 mm glass test tubes and total volume 20-100 ul. In general, frozen membranes were diluted in buffer A or buffer A containing 0.03% taurocholate and 0.05% digitonin to a final concentration of 0.02 to 5 mg/ml. […] Competing ligands were likewise added as DMSO solutions to give a total 2-10% organic solvent content. […] At least 2 components of buffer A, the bicarbonate and phosphate salts, were later found to be inconsequential and were routinely omitted.
Bound ligand was quantified by single-tube vacuum filtration using GF/C glass fiber filters. […] Filtration was accomplished by adding 2.5 ml of ice cold buffer (120 mM NaCl, 0.1% sodium cholate, and 20 mM MES at pH 6.70) to the assay tube, pouring the mixture through the filter, and then rinsing the tube and filter twice more with another 2×2.5 ml buffer. The filters were counted in 7 ml vials using Packard DM liquid scintillation fluid.
Data analysis. Data from saturation experiments were subjected to a Scatchard analysis, and linear regression was performed to yield the equilibrium dissociation constant (Kd) and maximum receptor concentration (Bmax). […] Data from competition experiments were analyzed and IC50 values determined from Hill plots of the binding data.

The subject of assay [3] is cholesterol absorption. As to conditions: mouse; cited from earlier work.
In assay [4] the target is T2, CHO cells expressing SR-B1 (Mus musculus, UniProt Q61009).
T2 construct: expressed in transfected cells; host or cells: CHO cells
T2 sequence (Q61009 1-509): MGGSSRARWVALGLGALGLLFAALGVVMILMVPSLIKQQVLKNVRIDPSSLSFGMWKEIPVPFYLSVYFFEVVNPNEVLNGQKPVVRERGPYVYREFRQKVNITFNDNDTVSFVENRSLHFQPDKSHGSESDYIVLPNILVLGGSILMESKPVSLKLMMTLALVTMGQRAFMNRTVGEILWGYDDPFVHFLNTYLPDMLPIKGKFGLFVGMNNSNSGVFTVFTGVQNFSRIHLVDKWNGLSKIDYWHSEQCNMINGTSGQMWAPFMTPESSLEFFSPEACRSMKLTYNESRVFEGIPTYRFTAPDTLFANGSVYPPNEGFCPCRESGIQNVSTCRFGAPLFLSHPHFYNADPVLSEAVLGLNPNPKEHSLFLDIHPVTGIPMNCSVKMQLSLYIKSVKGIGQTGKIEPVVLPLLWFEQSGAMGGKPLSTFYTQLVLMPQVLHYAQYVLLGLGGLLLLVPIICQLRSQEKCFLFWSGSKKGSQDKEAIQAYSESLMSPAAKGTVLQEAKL
Put plainly: Cholesterol uptake assay (Example 4). It is filed as cell-based. Particulars: 10 μM ezetimibe. As for the experimental part: CHO cells expressing either SR-B1 or three different clones of rat NPC1L1 or one clone of mouse NPC1L1 were starved overnight in cholesterol free media then dosed with [3H]-cholesterol in a mixed synthetic micelle emulsion for 4 min, 8 min, 12 min or 24 m in the absence or presence of 10 µM ezetimibe. The cells were harvested and the lipids were organically extracted. The extracted lipids were spotted on thin-layer chromatography (TLC) plates and resolved within an organic vapor phase. The free cholesterol bands for each assay were isolated and counted in a scintillation counter.

In the case of `O=C(O)C1OC(Oc2ccc(C3C(CCC(O)c4ccc(F)cc4)C(=O)N3c3ccc(F)cc3)cc2)C(O)C(O)C1O` (single isomer, unassigned) [Compound 4], the activity in vivo entry in assay [1] is “inactive; also recorded: lack of activity”. With `O=C(O)[C@H]1O[C@@H](Oc2ccc([C@@H]3[C@@H](CC[C@H](O)c4ccc(F)cc4)C(=O)N3c3ccc(F)cc3)cc2)[C@H](O)[C@@H](O)[C@@H]1O` [Compound 1, Ezetimibe glucuronide], the affinity in assay [2], expressed as Ki, was 39 nM. Still for that read-out and setting: with `CS(=O)(=O)NCC#Cc1ccc(N2C(=O)[C@H](CC[C@H](O)c3ccc(F)cc3)[C@H]2c2ccc(O[C@@H]3O[C@H](C(=O)O)[C@@H](O)[C@H](O)[C@H]3O)cc2)cc1` [Compound 2, 4-[(2S,3R)-3-[(3S)-3 (4-fluorophenyl)-3-hydroxypropyl]-1-(4-{3-[(methylsulfonyl)amino]prop-1-yn-1-yl}phenyl)-4-oxoazetidin-2-yl]phenyl β-D-glucopyranosiduronic acid] the figure was 38 nM. On to `O=C1[C@H](CC[C@H](O)c2ccc(F)cc2)[C@@H](c2ccc(O)cc2)N1c1ccc(F)cc1` [ezetimibe], for which, in assay [3], the “potency (ED50) in vivo” value is reported as 0.5 mpk. The “[^3H]-cholesterol uptake” value in assay [4] is recorded as “inhibited”.
